Assays:
[1] = Dissolution time of crystalline PAP dispersed in standard detergent solution (HPLC); assay type: physicochemical; details: listed as crystals of PAP in beta form
Description: Successive samples of liquid phase, carefully filtered on filter of 0.45 micron, are drawn and the PAP concentration in solution is determined by HPLC.
Said times are determined by drawing some curves reporting in ordinate the PAP concentration dissolved in the aqueous phase (determined by HPLC) and in abscissae the sample drawing time, taking as 100% the PAP concentration asymptotically obtained at infinite time.
The previous test is repeated by dispersing 70 mg of anhydrous crystalline PAP (base 100%), respectively of crystals and microcrystals (sizes lower than 10 micron) of PAP in beta form, obtained as from Examples 2B and 2A respectively, in one liter of aqueous solution, prepared as above, stirred and thermostated at the temperature of 25° C.
Successive samples of liquid phase, carefully filtered on filter of 0.45 micron, are drawn, and the PAP concentration in solution is determined by HPLC.

[2] = Phase separation and sedimentation of 5% aqueous PAP dispersion at rest in graduated cylinder; assay type: physicochemical; details: 5% by weight PAP dispersion, rest at room temperature
Description: In a beaker immersed in a thermostatic bath an aqueous dispersion of alpha crystalline PAP in demineralized water at 5% by weight of PAP is prepared, by adding to 473.5 ml of demineralized water at the temperature of 50° C., kept under stirring with an anchor and a magnetic stirrer, 500 ppm of antifoam DB 100 and 1,000 ppm of surfactant Hostapur® SAS and 26.50 g of crystalline PAP in alpha form, of technical degree (titre: 94.3%) having average sizes higher than 100 micron. After 10 minutes of stirring at 50° C., the beaker is removed from the thermostatic bath and the aqueous suspension is transferred in a graduated cylinder. It is let rest at room temperature in the graduated cylinder.
An aqueous dispersion of crystalline PAP in demineralized water at 5% by weight of PAP is prepared, as described in Example 2A, by adding to 471.9 ml of demineralized water 500 ppm of antifoam DB 100 and 1000 ppm of surfactant Hostapur® SAS and 28.1 g of crystalline PAP in beta form of technical degree (titre: 89%), having average sizes higher than 100 micron, in particular 80% of the particles being comprised between 100 and 200 micron. After 10 minutes of stirring at 50° C., the beaker is removed and the suspension is transferred into a graduated cylinder, as in Example 2A. […] The separation of the supernatant aqueous phase increases after 2 hours to more than 70% of the total volume.

O=C(CCCCCN1C(=O)c2ccccc2C1=O)OO [Example 2B, ε-phthalimido-peroxyhexanoic acid]
necessary time for the dissolution of 90% of the crystalline PAP initially dispersed ([1]; 70 mg PAP in 1 liter water 10° F. hardness + 1.70 g detergent IEC type B, 25° C.): 60 min
necessary time for the dissolution of 90% of the crystalline PAP initially dispersed ([1]; 100 mg PAP in 1 liter water 10° F. hardness + 1.70 g detergent IEC type B, 40° C.): 30 min
separation of supernatant aqueous phase ([2]; after 10 minutes): 60 % of the total volume
separation of supernatant aqueous phase ([2]; after 2 hours): more than 70 % of the total volume
solid phase thickening / sedimentation on the cylinder bottom ([2]; 2A after two hours and 48 hours, 2B after 10 minutes): sedimentation of a precipitate on the bottom

Reference: patent publication US7943657B2, “Imidoalkanpercarboxylic acids” (Solvay Solexis S.p.A., priority 2002, dated 2011)
